According to patent publication US8030357B2, “Use of bupropion metabolites for the treatment of inflammatory disorders” (Biocopea Limited, priority 2006, dated 2011):
“Also recorded” adds a separate entry of the source.

What was measured:
[1] = system: TNFα; assay: LPS Mouse Assay, serum TNFα; format: in vivo, Balb C ByJ mice; settings: mice, i.p. or oral dosing 30 minutes before 1 mg/kg LPS i.p.; serum 2 hours after LPS, ELISA
Method: (§1) 7 week old Balb C ByJ mice (24-28 g) were administered, either by i.p. (5 ml/kg) or oral (10 ml/kg) administration, with vehicle or test article. 30 minutes later these animals were challenged with an intraperitoneal injection of 1 mg/kg LPS. 2 hours after LPS challenge blood samples were collected under light isoflurane anaesthesia into normal tubes by retro-orbital puncture. Samples were allowed to clot at room temperature and then spun at 6000 g for 3 min at 4° C. Serum was stored at −20° C. until use. Serum TNFα and IL-10 levels were analysed in duplicate by ELISA technique.

[2] = system: IL-10; assay: LPS Mouse Assay, serum IL-10; format: in vivo, Balb C ByJ mice; settings: mice, i.p. or oral dosing 30 minutes before 1 mg/kg LPS i.p.; serum 2 hours after LPS, ELISA
Method: as §1

[3] = system: LPS-induced model of cytokine release; assay: LPS Mouse Assay, overall cytokine modulation; format: in vivo, Balb C ByJ mice; settings: LPS-challenged mice, serum TNFα and IL-10
Method: as §1

[4] = system: intraplantar carrageenan induced paw oedema; assay: Carrageenan Paw Assay; format: in vivo, male Wistar rats; settings: rats, oral gavage half an hour before carrageenan; paw volume AUC 1-5 hours
Method: Fasted (18 hour) male Wistar rats (105-130 g) were weighed and a basal mercury plethysmometer reading was taken of the right hind paw by submerging the paw in the mercury up to the tibiotarsal joint. Subsequently, vehicles, reference items and test articles were administered by oral gavage (10 ml/kg). Half an hour after treatment, 0.1 ml of 2% carrageenan in 0.9% saline was injected into the subplanatar area of the right hind paw. The right paw was measured again with the plethysmometer at 1, 2, 3, 4 and 5 hours after carrageenan administration. Paw volume effects was expressed as the area under the curve for paw volume over time. Activity (inhibition of paw volume) was expressed as the % antiinflammatory activity versus the vehicle control.

[5] = system: adjuvant arthritis; assay: Rat Adjuvant Assay; format: in vivo, Male Wistar rats; settings: rats, oral once a day from day 11; for paw oedema / paw inflammation: doses 3, 10 and 30 mg/kg
Method: Male Wistar rats (180 to 200 g) were inoculated by subplantar injection of Freund's adjuvant (suspension of Mycobacterium butyricum in mineral oil) into the right paw at day 0. Sham inoculations were injected in the same way with 0.9% saline in matched Male Wistar rats. On day 2, animals were weighed. On days 3, 4, 7, 9 and 11, animals were weighed and both their right and left hind paws were measured by plethsymometry by submerging the paw up to the tibiotarsal joint. On day 11, rats with left hind paw volumes increased by 20% were selected for continuance in the study. On the same day, continuance rats were administered test article orally (10 ml/kg in distilled water) and from then on once a day until the completion of the study. Left and right hind paw volumes were measured on days 11, 14, 15, 16, 18 and 21.

[6] = system: dextran sulphate induced colonic inflammation; assay: DSS Induced Colitis; format: in vivo, BDF1 male mice; settings: mice, 3% dextran sulphate
Method: 8-10 week old BDF1 male mice (˜30 g) were housed in normal conditions. At the start of the study normal water was exchanged for a 3% dextran sulphate solution to induce colonic inflammation. Concurrently actarit and the positive control budesonide were administered rectally twice a day for 7 days. On day 8 the animal were sacrificed and the large intestine was removed. The lower two thirds were assessed for histological severity (scoring system; 1 mild to 4 severe). Mice were assessed for cumulative rectal bleeding scores, diarrheal scores and cumulative hemoccult measurements.

[7] = system: SJL mouse EAE model; assay: Experimental Autoimmune Encephalitis; format: in vivo; settings: SJL mice, orally 10 mg/kg once a day from the first day
Method: Experimental Autoimmune Encephalitis
Acclimatised SJL mice were sensitised by a subcutaneous injection proteolipid protein (PLP) in Freund's complete adjuvant (CFA) acting as an encephalitogenic inoculum. Innoculum was administered subcutaneously at a concentration of 125 μg PLP/300 μg CFA in a volume of 200 μl. 48 hours later, an intraperitoneal injection of pertussis toxin (PTX) was administered at a dose of 20 μg/kg, to increase blood-brain barrier permeability.
Compound (6) was administered from the first day of the experiment and once a day until the end, orally at a dose of 10 mg/kg. Copaxone was administered intraperitoneally at a dose of 25 mg/kg. Throughout the experiment, careful clinical examinations and body weights were taken to observe the well being of the animal.

| Compound | effect on TNF alpha secretion induced by LPS [1] | effect on IL-10 secretion [2] | cytokine modulatory activity [3] | anti-inflammatory effect against carrageenan induced paw oedema [4] | protective effects against adjuvant arthritis [5] | paw oedema / paw inflammation [5] | comparative effectiveness of (6) against (5) in DSS colitis [6] | effect on histological scores induced by oral dextran sulphate ([6]; lower dose) | effect on histological scores induced by oral dextran sulphate ([6]; top dose) | effect on second relapse of EAE [7] |
| --- | --- | --- | --- | --- | --- | --- | --- | --- | --- | --- |
| C[C@@H](NC(C)(C)C)[C@H](O)c1cccc(Cl)c1 (racemic) [Compound 7, (+/−)-(threo)-2-tert-Butylamino-1-(3-chlorophenyl)propan-1-ol] | inhibiting TNF alpha at all doses administrated; also recorded: small inhibitory effect on TNF alpha at the highest dose | – | – | – | – | – | – | – | – | – |
| CC(NC(C)(C)C)C(=O)c1cccc(Cl)c1 (stereo not shown) [Compound 3, 2-tert-Butylamino-1-(3-chlorophenyl)propan-1-one, reference compound] | small effect | not present | very weak cytokine modulatory activity | – | – | – | – | – | – | – |
| (+)-(erythro)-2-tert-Butylamino-1-(3-chlorophenyl)propan-1-ol [Compound 6] | inhibited | potentiated II-10 secretion | good cytokine modulatory profiles | dose-dependant anti-inflammatory effect | protective effects | inhibited paw inflammation at all doses | marginally more effective | large ameliorating effect | marked effect | completely ameliorated the second relapse |
| (+/−)-(erythro)-2-tert-Butylamino-1-(3-chlorophenyl)propan-1-ol [Compound 8] | – | – | cytokine modulatory effects | – | – | – | – | – | – | – |
| (−)-(erythro)-2-tert-Butylamino-1-(3-chlorophenyl)propan-1-ol [Compound 5] | inhibited TNFα production | no effect on IL-10 levels | good cytokine modulatory profiles | dose-dependant anti-inflammatory effect | protective effects | reduced paw oedema at the top two doses | – | – | marked effect | – |
